Data: patent US4146631A, “Benzamide derivatives” (May & Baker Limited, priority 1976, dated 1979)

Test system: passive cutaneous anaphylactic (PCA) reaction
Experiment: Passive cutaneous anaphylactic (PCA) reaction, reagin-allergen combination, in rats
Assay type: in vivo
Details: Rattus norvegicus, intravenous, just before injection of allergen, read-out: ED100 (intravenous dose which produces 100% inhibition of the PCA reaction)
Excerpt: In pharmacological tests the benzamide derivatives of general formula I suppress the passive cutaneous anaphylactic (PCA) reaction resulting from combination of tissue-fixed reaginic antibodies with the appropriate antigenic material (termed reagin-allergen combination) and carried out in an essentially similar manner to that described by Ogilvie [Nature (Lond.), (1964), 204, 91-92; Immunology, (1967), 12, 112-131]. In the method used to test these compounds sera were obtained from rats which had been infected with larvae of the nematode parasite Nippostrongylus brasiliensis; as a result of the parasitic infestation reaginic antibodies are elaborated in the host mammal and are found in sera removed from such animals. Other, non-infected, rats received intradermal injections of appropriate dilutions of such sera and were then given the allergenic material along with Evans' blue dye intravenously forty-eight hours later.
The allergenic material consisted of supernatant fluid after centrifugation of homogenates of adult Nippostrongylus brasiliensis worms which had been macerated in Tyrode's solution. The sites of PCA reactions were visualised by the effusion of Evan's blue dye from the circulation into those areas as a result of increased capillary permeability caused by the release of biologically-active substances from cells where reagin-allergen combination had occurred. The new compounds when given intravenously to the rats just before injection of allergen, or administered orally thirty minutes before intravenous injection of allergen, were able to prevent the development of the PCA reaction, as shown below in Table I, Table II and Table III.

Row | SMILES | ED100 [mg/kg]
1 | Cc1cccc(C(=O)Nc2nnn[nH]2)c1O [AH, 2-hydroxy-3-methyl-N-(tetrazol-5-yl)benzamide] | 0.5
2 | CC(=O)c1cc([N+](=O)[O-])cc(C(=O)Nc2nnn[nH]2)c1O [Compound CS, 3acetyl-2-hydroxy-5-nitro-N-(tetrazol-5-yl)benzamide] | 0.1
3 | CC(=O)c1c(C)c(C)cc(C(=O)Nc2nnn[nH]2)c1O [BX, 3-acetyl-2-hydroxy-4,5-dimethyl-N-(tetrazol-5-yl)benzamide] | 20
4 | CC(=O)c1cc(C(=O)Nc2nnn[nH]2)c(O)c(C(C)=O)c1O [AW, 3,5-diacetyl-2,4-dihydroxy-N-(tetrazol-5-yl)benzamide] | 5
5 | CCCOc1cccc(C(=O)Nc2nnn[nH]2)c1O [Compound AN, 2-hydroxy-3-propoxy-N-(tetrazol-5-yl)benzamide] | 0.5
6 | CC(=O)c1cccc(C(=O)Nc2nnn[nH]2)c1O [CA, 3-acetyl-2-hydroxy-N-(tetrazol-5-yl)benzamide] | 0.1
7 | N#Cc1cccc(C(=O)Nc2nnn[nH]2)c1O [CJ, 3-cyano-2-hydroxy-N-(tetrazol-5-yl)benzamide] | 0.5
8 | Cc1ccc(O)c(C(=O)Nc2nnn[nH]2)c1 [AG, 2-hydroxy-5-methyl-N-(tetrazol-5-yl)benzamide] | 1
9 | CC(=O)c1cc(Cl)cc(C(=O)Nc2nnn[nH]2)c1O [Compound AU, 3-acetyl-5-chloro-2-hydroxy-N-(tetrazol-5-yl)benzamide] | 2
10 | CC(=O)c1cc(C(C)(C)C)cc(C(=O)Nc2nnn[nH]2)c1O [Compound BZ, 3-acetyl-5-tert-butyl-2-hydroxy-N-(tetrazol-5-yl)benzamide] | 0.5
11 | O=C(Nc1nnn[nH]1)c1cc([N+](=O)[O-])cc([N+](=O)[O-])c1O [Compound AE, 2-hydroxy-3,5-dinitro-N-(tetrazol-5-yl)benzamide] | 0.05
12 | CCCc1cc(C(C)=O)c(O)c(C(=O)Nc2nnn[nH]2)c1 [Compound CD, 3-acetyl-2-hydroxy-5-propyl-N-(tetrazol-5-yl)benzamide] | 0.1
13 | CC(=O)c1cc(C(=O)Nc2nnn[nH]2)c(O)c([N+](=O)[O-])c1 [CQ, 5-acetyl-2-hydroxy-3-nitro-N-(tetrazol-5-yl)benzamide] | 0.2
14 | O=C(Nc1nnn[nH]1)c1cc([N+](=O)[O-])ccc1O [AO, 2-hydroxy-5-nitro-N-(tetrazol-5-yl)benzamide] | 0.2
15 | COc1ccc(O)c(C(=O)Nc2nnn[nH]2)c1 [AP, 2-hydroxy-5-methoxy-N-(tetrazol-5-yl)benzamide] | 0.5

Same assay, conditions: Rattus norvegicus, oral dose of 100 mg/kg, thirty minutes before intravenous allergen

Row | SMILES | inhibition in vivo at 100 mg/kg [%]
16 | Cc1cccc(C(=O)Nc2nnn[nH]2)c1O [AH, 2-hydroxy-3-methyl-N-(tetrazol-5-yl)benzamide] | 82
17 | CC(=O)c1cc([N+](=O)[O-])cc(C(=O)Nc2nnn[nH]2)c1O [Compound CS, 3acetyl-2-hydroxy-5-nitro-N-(tetrazol-5-yl)benzamide] | 54
18 | CC(=O)c1cc(C(=O)Nc2nnn[nH]2)c(O)c(C(C)=O)c1O [AW, 3,5-diacetyl-2,4-dihydroxy-N-(tetrazol-5-yl)benzamide] | 84
19 | CCCOc1cccc(C(=O)Nc2nnn[nH]2)c1O [Compound AN, 2-hydroxy-3-propoxy-N-(tetrazol-5-yl)benzamide] | 87
20 | CC(=O)c1cccc(C(=O)Nc2nnn[nH]2)c1O [CA, 3-acetyl-2-hydroxy-N-(tetrazol-5-yl)benzamide] | 64
21 | N#Cc1cccc(C(=O)Nc2nnn[nH]2)c1O [CJ, 3-cyano-2-hydroxy-N-(tetrazol-5-yl)benzamide] | 50
22 | CC(=O)c1cc(Cl)cc(C(=O)Nc2nnn[nH]2)c1O [Compound AU, 3-acetyl-5-chloro-2-hydroxy-N-(tetrazol-5-yl)benzamide] | 71
23 | CC(=O)c1cc(C(C)(C)C)cc(C(=O)Nc2nnn[nH]2)c1O [Compound BZ, 3-acetyl-5-tert-butyl-2-hydroxy-N-(tetrazol-5-yl)benzamide] | 59
24 | O=C(Nc1nnn[nH]1)c1cc([N+](=O)[O-])cc([N+](=O)[O-])c1O [Compound AE, 2-hydroxy-3,5-dinitro-N-(tetrazol-5-yl)benzamide] | 80
25 | CCCc1cc(C(C)=O)c(O)c(C(=O)Nc2nnn[nH]2)c1 [Compound CD, 3-acetyl-2-hydroxy-5-propyl-N-(tetrazol-5-yl)benzamide] | 64
26 | CC(=O)c1cc(C(=O)Nc2nnn[nH]2)c(O)c([N+](=O)[O-])c1 [CQ, 5-acetyl-2-hydroxy-3-nitro-N-(tetrazol-5-yl)benzamide] | 56
27 | O=C(Nc1nnn[nH]1)c1cc([N+](=O)[O-])ccc1O [AO, 2-hydroxy-5-nitro-N-(tetrazol-5-yl)benzamide] | 48
28 | COc1ccc(O)c(C(=O)Nc2nnn[nH]2)c1 [AP, 2-hydroxy-5-methoxy-N-(tetrazol-5-yl)benzamide] | 75

Same assay, conditions: Rattus norvegicus, oral, thirty minutes before intravenous allergen, read-out: ED50 (oral dose which produces 50% inhibition of the PCA reaction)

Row | SMILES | ED50 [mg/kg]
29 | Cc1cccc(C(=O)Nc2nnn[nH]2)c1O [AH, 2-hydroxy-3-methyl-N-(tetrazol-5-yl)benzamide] | 10
30 | CCCOc1cccc(C(=O)Nc2nnn[nH]2)c1O [Compound AN, 2-hydroxy-3-propoxy-N-(tetrazol-5-yl)benzamide] | 40
31 | N#Cc1cccc(C(=O)Nc2nnn[nH]2)c1O [CJ, 3-cyano-2-hydroxy-N-(tetrazol-5-yl)benzamide] | 37
32 | CC(=O)c1cc(Cl)cc(C(=O)Nc2nnn[nH]2)c1O [Compound AU, 3-acetyl-5-chloro-2-hydroxy-N-(tetrazol-5-yl)benzamide] | 1.8
33 | CC(=O)c1cc(C(C)(C)C)cc(C(=O)Nc2nnn[nH]2)c1O [Compound BZ, 3-acetyl-5-tert-butyl-2-hydroxy-N-(tetrazol-5-yl)benzamide] | 2.6
34 | O=C(Nc1nnn[nH]1)c1cc([N+](=O)[O-])cc([N+](=O)[O-])c1O [Compound AE, 2-hydroxy-3,5-dinitro-N-(tetrazol-5-yl)benzamide] | 0.1 to 0.45
35 | O=C(Nc1nnn[nH]1)c1cc([N+](=O)[O-])ccc1O [AO, 2-hydroxy-5-nitro-N-(tetrazol-5-yl)benzamide] | 100
36 | COc1ccc(O)c(C(=O)Nc2nnn[nH]2)c1 [AP, 2-hydroxy-5-methoxy-N-(tetrazol-5-yl)benzamide] | 100

Test system: not listed separately
Experiment: Acute intravenous toxicity in mice
Details: mouse, in vivo, sodium salt (Na), 2% w/v test solution
Excerpt: Mice were each treated intravenously with an aqueous solution of the triethanolamine salt or sodium salt of one of the compounds of formula I, and they were observed until there had been at least 3 consecutive days without any deaths. The LD50 figures obtained (doses lethal to 50% of mice tested) are shown below in Table V, expressed in mg/kg animal body weight. In Table V, "Na" means that the sodium salt was used and "T" means that the triethanolamine salt was used.
The aqueous solutions were prepared as follows:
A mixture of the test compound and water was treated gradually with triethanolamine until complete solution occurred. The solution was then diluted with water to a concentration of test compound of either 1% w/v or 2% w/v.
The test compound was dissolved in aqueous sodium hydroxide (1N) and the solution was brought to pH 8 by treatment with hydrochloric acid. The solution was then diluted with water to a concentration of test compound of 2% w/v.
Various volumes of these solutions were then administered to the mice.

Row | SMILES | LD50 [mg/kg]
37 | Cc1ccc(O)c(C(=O)Nc2nnn[nH]2)c1 [AG, 2-hydroxy-5-methyl-N-(tetrazol-5-yl)benzamide] | 670
38 | COc1ccc(O)c(C(=O)Nc2nnn[nH]2)c1 [AP, 2-hydroxy-5-methoxy-N-(tetrazol-5-yl)benzamide] | 950

Same assay, conditions: mouse, in vivo, triethanolamine salt (T), 2% w/v test solution

Row | SMILES | LD50 [mg/kg]
39 | Cc1cccc(C(=O)Nc2nnn[nH]2)c1O [AH, 2-hydroxy-3-methyl-N-(tetrazol-5-yl)benzamide] | 770
40 | CC(=O)c1cc([N+](=O)[O-])cc(C(=O)Nc2nnn[nH]2)c1O [Compound CS, 3acetyl-2-hydroxy-5-nitro-N-(tetrazol-5-yl)benzamide] | 780
41 | CC(=O)c1c(C)c(C)cc(C(=O)Nc2nnn[nH]2)c1O [BX, 3-acetyl-2-hydroxy-4,5-dimethyl-N-(tetrazol-5-yl)benzamide] | 870
42 | CC(=O)c1cc(C(=O)Nc2nnn[nH]2)c(O)c(C(C)=O)c1O [AW, 3,5-diacetyl-2,4-dihydroxy-N-(tetrazol-5-yl)benzamide] | 710
43 | CCCOc1cccc(C(=O)Nc2nnn[nH]2)c1O [Compound AN, 2-hydroxy-3-propoxy-N-(tetrazol-5-yl)benzamide] | 480
44 | CC(=O)c1cccc(C(=O)Nc2nnn[nH]2)c1O [CA, 3-acetyl-2-hydroxy-N-(tetrazol-5-yl)benzamide] | 500
45 | N#Cc1cccc(C(=O)Nc2nnn[nH]2)c1O [CJ, 3-cyano-2-hydroxy-N-(tetrazol-5-yl)benzamide] | > 1000
46 | CC(=O)c1cc(Cl)cc(C(=O)Nc2nnn[nH]2)c1O [Compound AU, 3-acetyl-5-chloro-2-hydroxy-N-(tetrazol-5-yl)benzamide] | 245
47 | CC(=O)c1cc(C(C)(C)C)cc(C(=O)Nc2nnn[nH]2)c1O [Compound BZ, 3-acetyl-5-tert-butyl-2-hydroxy-N-(tetrazol-5-yl)benzamide] | 240
48 | O=C(Nc1nnn[nH]1)c1cc([N+](=O)[O-])cc([N+](=O)[O-])c1O [Compound AE, 2-hydroxy-3,5-dinitro-N-(tetrazol-5-yl)benzamide] | 490
49 | CCCc1cc(C(C)=O)c(O)c(C(=O)Nc2nnn[nH]2)c1 [Compound CD, 3-acetyl-2-hydroxy-5-propyl-N-(tetrazol-5-yl)benzamide] | 250
50 | CC(=O)c1cc(C(=O)Nc2nnn[nH]2)c(O)c([N+](=O)[O-])c1 [CQ, 5-acetyl-2-hydroxy-3-nitro-N-(tetrazol-5-yl)benzamide] | 890
51 | O=C(Nc1nnn[nH]1)c1cc([N+](=O)[O-])ccc1O [AO, 2-hydroxy-5-nitro-N-(tetrazol-5-yl)benzamide] | 870

Test system: not listed separately
Experiment: Acute oral toxicity in mice
Details: mouse, in vivo, highest dose used 1000 mg/kg, read-out: LD50 (doses lethal to 50% of mice tested)
Excerpt: Mice were each treated orally with one of the compounds of formula I, and they were observed daily until there had been at least 3 consecutive days without any deaths. The LD50 figures obtained (doses lethal to 50% of mice tested) are shown below in Table IV, expressed in mg/kg animal body weight.
The symbol ">" means "greater than" in this specification. Where the LD50 is said to be ">1000," a more precise estimation of the LD50 was not possible because the numbers of deaths was too small, even at the highest dose used, 1000 mg/kg.

Row | SMILES | LD50 [mg/kg]
52 | Cc1cccc(C(=O)Nc2nnn[nH]2)c1O [AH, 2-hydroxy-3-methyl-N-(tetrazol-5-yl)benzamide] | > 1000
53 | CC(=O)c1cc([N+](=O)[O-])cc(C(=O)Nc2nnn[nH]2)c1O [Compound CS, 3acetyl-2-hydroxy-5-nitro-N-(tetrazol-5-yl)benzamide] | > 1000
54 | CC(=O)c1c(C)c(C)cc(C(=O)Nc2nnn[nH]2)c1O [BX, 3-acetyl-2-hydroxy-4,5-dimethyl-N-(tetrazol-5-yl)benzamide] | > 1000
55 | CC(=O)c1cc(C(=O)Nc2nnn[nH]2)c(O)c(C(C)=O)c1O [AW, 3,5-diacetyl-2,4-dihydroxy-N-(tetrazol-5-yl)benzamide] | > 1000
56 | CCCOc1cccc(C(=O)Nc2nnn[nH]2)c1O [Compound AN, 2-hydroxy-3-propoxy-N-(tetrazol-5-yl)benzamide] | > 1000
57 | CC(=O)c1cccc(C(=O)Nc2nnn[nH]2)c1O [CA, 3-acetyl-2-hydroxy-N-(tetrazol-5-yl)benzamide] | > 1000
58 | N#Cc1cccc(C(=O)Nc2nnn[nH]2)c1O [CJ, 3-cyano-2-hydroxy-N-(tetrazol-5-yl)benzamide] | > 1000
59 | Cc1ccc(O)c(C(=O)Nc2nnn[nH]2)c1 [AG, 2-hydroxy-5-methyl-N-(tetrazol-5-yl)benzamide] | > 1000
60 | CC(=O)c1cc(Cl)cc(C(=O)Nc2nnn[nH]2)c1O [Compound AU, 3-acetyl-5-chloro-2-hydroxy-N-(tetrazol-5-yl)benzamide] | > 1000
61 | CC(=O)c1cc(C(C)(C)C)cc(C(=O)Nc2nnn[nH]2)c1O [Compound BZ, 3-acetyl-5-tert-butyl-2-hydroxy-N-(tetrazol-5-yl)benzamide] | > 1000
62 | O=C(Nc1nnn[nH]1)c1cc([N+](=O)[O-])cc([N+](=O)[O-])c1O [Compound AE, 2-hydroxy-3,5-dinitro-N-(tetrazol-5-yl)benzamide] | > 1000
63 | CCCc1cc(C(C)=O)c(O)c(C(=O)Nc2nnn[nH]2)c1 [Compound CD, 3-acetyl-2-hydroxy-5-propyl-N-(tetrazol-5-yl)benzamide] | > 1000
64 | CC(=O)c1cc(C(=O)Nc2nnn[nH]2)c(O)c([N+](=O)[O-])c1 [CQ, 5-acetyl-2-hydroxy-3-nitro-N-(tetrazol-5-yl)benzamide] | > 1000
65 | O=C(Nc1nnn[nH]1)c1cc([N+](=O)[O-])ccc1O [AO, 2-hydroxy-5-nitro-N-(tetrazol-5-yl)benzamide] | > 1000
66 | COc1ccc(O)c(C(=O)Nc2nnn[nH]2)c1 [AP, 2-hydroxy-5-methoxy-N-(tetrazol-5-yl)benzamide] | > 1000
